From PubChem BioAssay AID300 (DTP/NCI, 2004)
Where “and” joins values, the source holds several entries; their conditions need not be identical. Equal entries are not always repeated. Results filed as inconclusive are left out. Rule for the calls: active = survival T/C of 150% or more; inactive = T/C below 125% in these data. *1 amine or outer side, *2 acyl side, *3 side chain or, on linkers, in order; H or OH if unused. Where a SMILES comes first, the peptide text is derived from it. Bridges are numbered along the chain shown (N, C = ends). Roman numbers before positions name the chains, in order. [ ]: non-standard residue; d: D form. Actinocin(9to1) = Cc1c2oc3c(C)ccc(C(=O)[*:1])c3nc-2c(C(=O)[*:2])c(N)c1=O; aThr = C[C@H](O)[C@H](N)C(=O)O; NMeV = CN[C@H](C(=O)O)C(C)C; Sar = CNCC(=O)O

Tested on: Madison 109 lung carcinoma i.m., mice, median survival
Assay: NCI In Vivo Anticancer Drug Screen. Data for tumor model Madison 109 Lung Carcinoma (intramuscular) in unknown mice
Conditions: endpoint: median survival time, higher = longer survival
Experimental: The antitumor activity of compounds was measured in mice bearing transplantable tumors. Survival or tumor size were measured and the results are expressed as the measurement made in the treated group (T) divided by the measurement made in the vehicle treated control group (C). The tumor model used in this assay is Madison 109 Lung Carcinoma (intramuscular) in unknown mice

[1] = dose: 1.5 mg/kg/injection, schedule: Q01DX009 (ip), vehicle: water
[2] = dose: 2.5 mg/kg/injection, schedule: Q01DX009 (ip), vehicle: water
[3] = dose: 5.0 mg/kg/injection, schedule: Q01DX009 (ip), vehicle: saline
[4] = dose: 10.0 mg/kg/injection, schedule: Q01DX009 (ip), vehicle: saline
[5] = dose: 4.0 mg/kg/injection, schedule: Q01DX009 (ip), vehicle: water
[6] = dose: 50.0 mg/kg/injection, schedule: Q01DX009 (ip), vehicle: other
[7] = dose: 3.0 mg/kg/injection, schedule: Q01DX009 (ip), vehicle: water
[8] = dose: 6.0 mg/kg/injection, schedule: Q01DX009 (ip), vehicle: water
[9] = dose: 10.0 mg/kg/injection, schedule: Q01DX009 (ip), vehicle: water

Measured: T/C

COc1cccc2c1C(=O)c1c(O)c3c(c(O)c1C2=O)C[C@@](O)(C(C)=O)C[C@@H]3OC1CC(N)C(O)C(C)O1 (some centres not stated)
inactive: dose: 0.25 mg/kg/injection, schedule: Q04DX003 (ip), vehicle: water 108 % of control | dose: 0.5 mg/kg/injection, schedule: Q04DX003 (ip), vehicle: water 120 % of control | dose: 1.0 mg/kg/injection, schedule: Q01DX009 (ip), vehicle: water 111 % of control | dose: 1.0 mg/kg/injection, schedule: Q04DX003 (ip), vehicle: water 94 % of control | [1] 55 % of control | dose: 1.5 mg/kg/injection, schedule: Q04DX003 (ip), vehicle: water 122 % of control | [2] 32 % of control

NC(C=O)C(O)C(O)C(O)CO (configuration not stated)
inactive: dose: 400.0 mg/kg/injection, schedule: Q01DX009 (ip), vehicle: saline 98 % of control | dose: 800.0 mg/kg/injection, schedule: Q01DX009 (ip), vehicle: saline 93 % of control | dose: 1600.0 mg/kg/injection, schedule: Q01DX009 (ip), vehicle: saline 96 % of control | dose: 3200.0 mg/kg/injection, schedule: Q01DX009 (ip), vehicle: saline 110 % of control

COc1cccc2c1C(=O)c1c(O)c3c(c(O)c1C2=O)CC(O)(C(C)=O)CC3OC1CC(N)C(O)C(C)O1 (configuration not stated)
inactive: dose: 5.5 mg/kg/injection, schedule: Q01DX005 (ip), vehicle: water 123 % of control | dose: 8.0 mg/kg/injection, schedule: Q01DX005 (ip), vehicle: water 123 % of control | dose: 16.5 mg/kg/injection, schedule: Q01DX005 (ip), vehicle: water 119 % of control and 120 % of control | dose: 24.0 mg/kg/injection, schedule: Q01DX005 (ip), vehicle: water 73 % of control | dose: 27.5 mg/kg/injection, schedule: Q01DX005 (ip), vehicle: water 52 % of control | dose: 31.5 mg/kg/injection, schedule: Q01DX005 (ip), vehicle: water 123 % of control | dose: 40.0 mg/kg/injection, schedule: Q01DX005 (ip), vehicle: water 114 % of control | dose: 52.5 mg/kg/injection, schedule: Q01DX005 (ip), vehicle: water 114 % of control

CN(Cc1cnc2nc(N)nc(N)c2n1)c1ccc(C(=O)N[C@@H](CCC(=O)O)C(=O)O)cc1
inactive: dose: 0.07 mg/kg/injection, schedule: Q01DX009 (ip), vehicle: sodium bicarbonate 99 % of control | dose: 0.15 mg/kg/injection, schedule: Q01DX009 (ip), vehicle: sodium bicarbonate 123 % of control | dose: 0.3 mg/kg/injection, schedule: Q01DX009 (ip), vehicle: sodium bicarbonate 108 % of control | dose: 0.6 mg/kg/injection, schedule: Q01DX009 (ip), vehicle: sodium bicarbonate 111 % of control

O=c1[nH]cc(F)c(=O)[nH]1
inactive: [3] 94 % of control | [4] 88 % of control | dose: 15.0 mg/kg/injection, schedule: Q01DX009 (ip), vehicle: saline 123 % of control | dose: 20.0 mg/kg/injection, schedule: Q01DX009 (ip), vehicle: saline 113 % of control

Cc1c(N)nc([C@H](CC(N)=O)NC[C@H](N)C(N)=O)nc1C(=O)N[C@H](C(=O)N[C@H](C)[C@@H](O)[C@H](C)C(=O)N[C@H](C(=O)NCCc1nc(-c2nc(C(=O)NCCC[S+](C)C)cs2)cs1)[C@@H](C)O)C(OC1OC(CO)C(O)C(O)C1OC1OC(CO)C(O)C(OC(N)=O)C1O)c1cnc[nH]1 (some centres not stated)
inactive: dose: 2.5 mg/kg/injection, schedule: Q04DX003 (ip), vehicle: saline 120 % of control | dose: 5.0 mg/kg/injection, schedule: Q04DX003 (ip), vehicle: saline 123 % of control | dose: 20.0 mg/kg/injection, schedule: Q04DX003 (ip), vehicle: saline 108 % of control | dose: 30.0 mg/kg/injection, schedule: Q04DX003 (ip), vehicle: saline 100 % of control

O=C(O)c1c(Cl)c(Cl)c(Cl)c(Cl)c1-c1c2cc(I)c(=O)c(I)c-2oc2c(I)c(O)c(I)cc12
inactive: [5] 90 % of control | dose: 8.0 mg/kg/injection, schedule: Q01DX009 (ip), vehicle: water 102 % of control | dose: 25.0 mg/kg/injection, schedule: Q01DX009 (ip), vehicle: water 100 % of control | dose: 32.0 mg/kg/injection, schedule: Q01DX009 (ip), vehicle: water 107 % of control | dose: 50.0 mg/kg/injection, schedule: Q01DX009 (ip), vehicle: water 106 % of control | dose: 64.0 mg/kg/injection, schedule: Q01DX009 (ip), vehicle: water 99 % of control

Cc1c2oc3c(C)ccc(C(=O)N[C@@H]4C(=O)N[C@H](C(C)C)C(=O)N5CCC[C@H]5C(=O)N(C)CC(=O)N(C)[C@@H](C(C)C)C(=O)O[C@H]4C)c3nc-2c(C(=O)N[C@@H]2C(=O)N[C@H](C(C)C)C(=O)N3CCC[C@H]3C(=O)N(C)CC(=O)N(C)[C@@H](C(C)C)C(=O)O[C@H]2C)c(N)c1=O (I: [aThr][dV]P[Sar][NMeV] / II: [aThr][dV]P[Sar][NMeV]; ester I:1-I:C, II:1-II:C; linker I:N-II:N via Actinocin(9to1))
inactive: dose: 0.04 mg/kg/injection, schedule: Q02DX009 (ip), vehicle: water 100 % of control | dose: 0.05 mg/kg/injection, schedule: Q02DX009 (ip), vehicle: water 108 % of control | dose: 0.05 mg/kg/injection, schedule: Q03DX009 (ip), vehicle: water 110 % of control | dose: 0.05 mg/kg/injection, schedule: Q04DX009 (ip), vehicle: water 106 % of control | dose: 0.06 mg/kg/injection, schedule: Q02DX009 (ip), vehicle: water 100 % of control | dose: 0.08 mg/kg/injection, schedule: Q02DX009 (ip), vehicle: water 121 % of control | dose: 0.08 mg/kg/injection, schedule: Q04DX009 (ip), vehicle: water 110 % of control | dose: 0.1 mg/kg/injection, schedule: Q01DX001 (ip), vehicle: water 112 % of control | dose: 0.2 mg/kg/injection, schedule: Q01DX001 (ip), vehicle: water 110 % of control | dose: 0.4 mg/kg/injection, schedule: Q01DX001 (ip), vehicle: water 110 % of control

NC(=O)c1cn[nH]c1N
inactive: [6] 97 % of control | dose: 100.0 mg/kg/injection, schedule: Q01DX009 (ip), vehicle: other 94 % of control | dose: 200.0 mg/kg/injection, schedule: Q01DX009 (ip), vehicle: other 92 % of control | dose: 400.0 mg/kg/injection, schedule: Q01DX009 (ip), vehicle: other 102 % of control

CC[C@H]1CN2CCc3cc(OC)c(OC)cc3[C@@H]2C[C@@H]1C[C@H]1NCCc2cc(OC)c(OC)cc21
inactive: dose: 2.0 mg/kg/injection, schedule: Q01DX009 (ip), vehicle: water 115 % of control | [7] 115 % of control | [5] 112 % of control | [8] 115 % of control

C[C@@H]1C[C@@H]([C@H](O)CC2CC(=O)NC(=O)C2)C(=O)[C@@H](C)C1
inactive: [9] 94 % of control | dose: 20.0 mg/kg/injection, schedule: Q01DX009 (ip), vehicle: water 100 % of control

CSCS(=O)C[C@H](CO)NC(=O)/C=C/c1c(C)[nH]c(=O)[nH]c1=O (some centres not stated)
inactive: dose: 0.02 mg/kg/injection, schedule: Q01DX009 (ip), vehicle: water 89 % of control | dose: 0.05 mg/kg/injection, schedule: Q01DX009 (ip), vehicle: water 97 % of control | dose: 0.1 mg/kg/injection, schedule: Q01DX009 (ip), vehicle: water 91 % of control | dose: 0.2 mg/kg/injection, schedule: Q01DX009 (ip), vehicle: water 94 % of control

S=P(N1CC1)(N1CC1)N1CC1
inactive: [1] 110 % of control | [2] 101 % of control | [7] 92 % of control | dose: 5.0 mg/kg/injection, schedule: Q01DX009 (ip), vehicle: water 109 % of control | [8] 105 % of control | [9] 107 % of control | dose: 40.0 mg/kg/injection, schedule: Q01DX009 (ip), vehicle: water 110 % of control

COc1cc2c(c(OC)c1OC)-c1ccc(OC)c(=O)cc1[C@@H](NC(C)=O)CC2
inactive: dose: 0.06 mg/kg/injection, schedule: Q01DX009 (ip), vehicle: water 100 % of control | dose: 0.12 mg/kg/injection, schedule: Q01DX009 (ip), vehicle: water 90 % of control | dose: 0.24 mg/kg/injection, schedule: Q01DX009 (ip), vehicle: water 100 % of control

O=C(O)CCCc1ccc(N(CCCl)CCCl)cc1
inactive: dose: 1.5 mg/kg/injection, schedule: Q01DX009 (ip), vehicle: saline 105 % of control

C[C@]12C=CC(=O)C=C1CC[C@@H]1[C@@H]2C(=O)C[C@@]2(C)[C@H]1CC[C@]2(O)C(=O)CO
inactive: [3] 113 % of control | [4] 117 % of control | dose: 40.0 mg/kg/injection, schedule: Q01DX009 (ip), vehicle: saline 120 % of control

CC1=C(/C=C/C(C)=C/C=C/C(C)=C/C(=O)O)C(C)(C)CCC1
inactive: dose: 25.0 mg/kg/injection, schedule: Q01DX009 (ip), vehicle: other 94 % of control | [6] 95 % of control
